Data: US20250177564A1, “GENE THERAPY FOR THE TREATMENT OF HT1” (LogicBio Therapeutics, Inc., priority 2021, published 2025)

Experiments:
Fah−/− mice [1] = experiment: Compatibility between NTBC (standard of care) and GENERIDE, NTBC titration; format: in vivo, mouse; conditions: high doses of NTBC
Description: Four-week-old Fah−/− animals were treated with rAAV.DJ-GR-mFAH at dosages of 1e14 vg/kg via retro-orbital sinus under anesthesia. All mice were kept on 8 mg/L of NTBC prior to the initiation of the study until 4 weeks post dosing, and then NTBC were either maintained at 8 mg/L (control) or titrated down to 3 mg/L, 0.8 mg/L, or 0.3 mg/L for 8 weeks. During the study, animals were sampled periodically by submandibular bleed and plasma was collected and stored at −80° C. until further analysis. At sacrifices, blood was collected for plasma via cardiac puncture. For liver dissection, one lobe of liver was fixed by 10% formalin, and the remaining was snap-frozen and stored at −80° C. Next day, formalin-fixed liver was transferred to 70% ethanol for paraffin embedding.
Viral vectors comprising an AAV-DJ viral capsid, mouse FAH (mFAH) transgene, P2A sequence, and flanking 5′ homology arm 1000 nucleotides (nt) in length and a 3′ homology arm 1600 nt in length homology arms were constructed. Homology arms were designed for complementarity to a mouse genomic albumin target integration site. Viral vectors herein described were administered at a dosage of 1e14 vg/kg to […] groups (Groups 1, 2, 3, 4) of Fah−/− mice via intravenous injection at 4 weeks of age. […] Mice were assessed for circulating biomarkers (e.g., levels of ALB-2A) for up to 6 weeks post-NTBC titration (FIG. 4B).

Fah−/− mice [2] = experiment: Disease progression and resolution with and without NTBC (NTBC cycling); format: in vivo, mouse
Description: Fah−/− mice were kept on 8 mg/L of NTBC-drinking water prior to the initiation of the study at 7 weeks of age. Animals were then supplied with regular water (NTBC off) for 7 days, followed by NTBC-containing water at 8 mg/L for another 7 days. The above cycling was repeated for another 14 days. During the study, animals were monitored for daily body weight. Submandibular blood and urine were sampled periodically, and serum and plasma were collected and stored at −80° C. until further analysis. At sacrifice, blood was collected for plasma via cardiac puncture. For liver dissection, one lobe of liver was fixed by 10% formalin, and the remaining was snap-frozen and stored at −80° C. The following day, the formalin-fixed liver was transferred to 70% ethanol for paraffin embedding.

HT1 patients = conditions: cited from earlier work

O=C1CCCC(=O)C1C(=O)c1ccc(C(F)(F)F)cc1[N+](=O)[O-] [NTBC, 2-(2-nitro-4-trifluoromethylbenzoyl)-1,3cyclohexanedione]
effect on selective expansion of GENERIDE edited cells (hepatocytes) (Fah−/− mice [1]): prevent selective expansion
time to restore levels of disease biomarkers (SUAC) and liver synthetic function (aPTT, ALT, blood glucose) (Fah−/− mice [2]; NTBC 8 mg/L drinking water): less than 7 days
time to abnormal levels of disease biomarkers (SUAC) and liver synthetic function upon withdrawal (Fah−/− mice [2]; NTBC withdrawal): less than 3 days
risk of developing HCC, NTBC started after the neonatal period compared to patients treated as neonates (HT1 patients): 2-12 fold
